Laboratory results from US20060263802A1 (priority 2003, published 2006).

Assays:
Format in all cases: binding
[1] = test system: human monoclonal antibody CR57
[2] = test system: human monoclonal antibody CR57; remark: listed apart in the source
[3] = test system: human monoclonal antibody CRJB
[4] = test system: human monoclonal antibody CRJB; remark: listed apart in the source
[5] = test system: human monoclonal antibody CRJA
[6] = test system: human monoclonal antibody CRJA; remark: listed apart in the source

Sequence	Binding of CR57 (10 μg/ml) to looped/cyclic peptide (PEPSCAN-ELISA) [1]	Binding of CR57 to linear peptide (PEPSCAN-ELISA signal) [2]	Binding of CRJB to linear peptide (PEPSCAN-ELISA signal) [3]	Binding of CRJB (10 μg/ml) to looped/cyclic peptide (PEPSCAN-ELISA) [4]	Binding of CRJA to linear peptide (PEPSCAN-ELISA signal) [5]	Binding of CRJA (10 μg/ml) to looped/cyclic peptide (PEPSCAN-ELISA) [6]	Binding of CR57 (10 μg/ml) to looped/cyclic peptide (PEPSCAN-ELISA signal) [1]	Binding of CRJB (10 μg/ml) to looped/cyclic peptide (PEPSCAN-ELISA signal) [4]	Binding of CRJA (10 μg/ml) to looped/cyclic peptide (PEPSCAN-ELISA signal) [6]	binding of antibody CRJA to looped/cyclic peptide (PEPSCAN OD) [6]	binding of antibody CR57 to linear peptide (PEPSCAN OD) [2]
RVGGRCHPHVNGVFF	107	86	143	104	93	117	–	–	–	–	–
RWLRTVKTTKESLVI	–	40	110	–	72	–	77	75	71	–	–
RYEESLHNPYPDYRW	–	69	112	–	96	–	98	71	91	–	–
SCDIFTNSRGKRASK	–	44	111	–	89	–	1	79	57	–	–
SCPNNLVVEDEGCTN	–	83	114	–	88	–	82	69	85	–	–
SDEIEHLVVEELVRK	96	101	117	85	97	99	–	–	–	–	–
SETCGFVDERGLYKS	58	33	116	78	71	56	–	–	–	–	–
SFRRLSHLRKLVPGF	143	92	110	87	75	320	–	–	–	clearly bound	–
SGFSYMELKVGYILA	–	79	132	–	105	–	74	83	69	–	–
SGKCSGVAVSSTYCS	–	64	121	–	65	–	77	57	85	–	–
SGVAVSSTYCSTNHD	–	79	110	–	84	–	79	55	90	–	–
SHLRKLVPGFGKAYT	143	113	132	103	118	160	–	–	–	–	–
SIMTTKSVSFRRLSH	69	54	130	25	92	72	–	–	–	–	–
SKGCLRVGGRCHPHV	79	72	121	87	87	71	–	–	–	–	–
SKGSETCGFVDERGL	104	92	102	77	104	99	–	–	–	–	–
SLHNPYPDYRWLRTV	–	78	111	–	87	–	104	90	99	–	–
SLHSRVFPSGKCSGV	–	69	111	–	96	–	115	86	97	–	–
SLKGACKLKLCGVLG	129	200	111	79	99	106	–	–	–	–	bound
SLLQQHMELLESSVI	113	124	163	85	108	101	–	–	–	–	–
SLVIISPSVADLDPY	–	68	105	–	88	–	98	85	87	–	–
SNETKWCPPDQLVNL	129	99	129	93	94	102	–	–	–	–	–
SPIDIHHLSCPNNLV	–	74	85	–	100	–	94	72	92	–	–
SPSVADLDPYDRSLH	–	59	114	–	72	–	76	63	51	–	–
SRGKRASKGSETCGF	–	64	93	–	70	–	96	86	82	–	–
SRVFPSGKCSGVAVS	–	100	125	–	107	–	112	89	92	–	–
SSLLQQHMELLESSV	98	90	128	76	106	90	–	–	–	–	–
SSTYCSTNHDYTIWM	–	76	107	–	71	–	96	66	90	–	–
SSVIPLVHPLADPST	120	73	104	80	60	45	–	–	–	–	–
STNHDYTIWMPENPR	–	60	112	–	77	–	72	74	51	–	–
